Results taken from patent EP3210469A1, “USE OF SUBSTITUTED THIO-1,2,4-TRIAZOLES FOR INCREASING STRESS TOLERANCE IN PLANTS” (Bayer CropScience AG, priority 2016, dated 2017).
Values belong to the compound of their own block, whether it stands above or below them.

Assays:
[1] = molecular target: T1, Phosphatase ABI1 über den Co-Regulator RCAR11/PYR1 (Arabidopsis thaliana, UniProt O49686+P49597); experiment: In vitro ABI1 phosphatase inhibition assay via co-regulator RCAR11/PYR1 (MUP dephosphorylation, fluorescence); assay type: biochemical; conditions: Konzentration 5mM of the substance in DMSO and water; 20 min at 35 °C; MUP substrate, emission 460 nm
T1 sequence (O49686 1-191): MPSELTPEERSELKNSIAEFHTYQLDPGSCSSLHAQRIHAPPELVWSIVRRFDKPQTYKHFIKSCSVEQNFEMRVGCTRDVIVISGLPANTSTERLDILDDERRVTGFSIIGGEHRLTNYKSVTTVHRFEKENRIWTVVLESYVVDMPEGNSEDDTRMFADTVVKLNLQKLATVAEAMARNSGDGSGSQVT
T1 sequence (P49597 1-434): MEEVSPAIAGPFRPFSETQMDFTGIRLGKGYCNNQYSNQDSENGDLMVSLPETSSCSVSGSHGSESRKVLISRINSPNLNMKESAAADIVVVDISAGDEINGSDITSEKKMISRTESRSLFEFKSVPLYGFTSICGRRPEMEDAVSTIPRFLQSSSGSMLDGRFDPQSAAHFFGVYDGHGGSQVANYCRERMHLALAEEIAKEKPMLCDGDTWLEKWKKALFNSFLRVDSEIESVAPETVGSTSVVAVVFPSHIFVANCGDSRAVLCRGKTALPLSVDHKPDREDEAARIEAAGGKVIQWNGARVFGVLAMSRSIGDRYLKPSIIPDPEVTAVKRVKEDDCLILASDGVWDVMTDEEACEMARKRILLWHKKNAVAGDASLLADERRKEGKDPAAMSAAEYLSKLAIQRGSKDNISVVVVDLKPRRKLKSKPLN
Source text: Effekte des Phytohormons Abscisinsäure (ABA) auf das Verhalten von Pflanzen unter abiotischem Stress und der Wirkmechanismus von ABA sind in der Literatur beschrieben (vgl. Abrams et al, WO97/23441, Park et al. Science, 2009, 324, 1068; Grill et al. Science, 2009, 324, 1064; Tanokura et al. Biophysics, 2011, 7, 123; Schroeder et al. Plant J. 2010, 61, 290). Daher kann man mit Hilfe eines geeigneten in vitro-Testsystems eine Korrelation zwischen der Wirkung von ABA und der Stressantwort einer Pflanze unter abiotischem Stress ableiten. Unter Wassermangel (Trockenstress) bilden Pflanzen das Phytohormon Abscisinsäure (ABA). Dieses bindet mit einem Co-Regulator (Regulatory Component of ABA-Receptor = RCAR nach Grill et al. Science, 2009, 324, 1064 oder PYR/PYL nach Cutler et al. Science, 2009, 324, 1068) an eine Phosphatase (z.B. ABI1, eine Typ 2C Proteinphosphatase, auch als PP2C abgekürzt) und hemmt diese in ihrer Aktivität. In der Folge wird eine "downstream" Kinase (z.B. SnRK2) nicht mehr dephosphoryliert. Diese somit aktive Kinase schaltet über Phosphorylierung von Transkriptionsfaktoren (z.B. AREB/ABF, vgl. Yoshida et al Plant J. 2010, 61, 672) ein genetisches Schutzprogramm zur Erhöhung der Trockenstresstoleranz an.
In dem im Folgenden beschriebenen Assay wird die Hemmung der Phosphatase ABI1 über den Co-Regulator RCAR11/PYR1 aus Arabidopsis thaliana genutzt. […]

Zea mays = experiment: Drought stress greenhouse test, in vivo Part A (spray application, visual rating vs stressed control plants); parameters: key: 0: kein Effekt; +: leicht positiver Effekt; ++: deutlich positiver Effekt; +++: stark positiver Effekt; conditions: Trockenstress, 600 l/ha water, mean rating of 3 pots
Source text: (§1) Samen von mono- bzw. dikotylen Kulturpflanzen wurden in Plastiktöpfen in sandigem Lehmboden ausgesät, mit Erde oder Sand abgedeckt und im Gewächshaus unter guten Wachstumsbedingungen angezogen. Die Behandlung der Versuchspflanzen erfolgte im frühen Laubblattstadium (BBCH10 - BBCH13). Zur Gewährleistung einer uniformen Wasserversorgung vor Stressbeginn wurden die bepflanzten Töpfe vor Substanzapplikation durch Anstaubewässerung mit Wasser versorgt.
(§2) Die in Form von benetzbaren Pulvern (WP) formulierten erfindungsgemässen Verbindungen wurden als wässrige Suspension mit einer Wasseraufwandmenge von umgerechnet 600 I/ha unter Zusatz von 0,2% Netzmittel (z.B. Agrotin) auf die grünen Pflanzenteile gesprüht. Unmittelbar nach Substanzapplikation erfolgte die Stressbehandlung der Pflanzen.
(§3) Der Trockenstress wurde durch langsames Abtrocknen unter folgenden Bedingungen induziert: • "Tag": 14 Stunden beleuchtet bei ~ 26-30°C • "Nacht": 10 Stunden ohne Beleuchtung bei ~ 18-20°C.
(§4) Die Dauer der jeweiligen Stressphasen richtete sich hauptsächlich nach dem Zustand der gestressten Kontrollpflanzen. Sie wurde (durch Wiederbewässerung und Transfer in ein Gewächshaus mit guten Wachstumsbedingungen) beendet, sobald irreversible Schäden an den gestressten Kontrollpflanzen zu beobachten waren.
(§5) Nach Beendigung der Stressphase folgte eine ca. 4-7 tägige Erholungsphase, während der die Pflanzen abermals unter guten Wachstumsbedingungen im Gewächshaus gehalten wurden. Die Dauer der Erholungsphase richtete sich hauptsächlich danach, wann die Versuchspflanzen einen Zustand erreicht hatten, der eine visuelle Bonitur potenzieller Effekte ermöglichte, und war daher variabel.
(§6) Wenn dieser Zeitpunkt erreicht war, wurde das Erscheinungsbild der mit Testsubstanzen behandelten Pflanzen im Vergleich zu den gestressten Kontrollpflanzen nach folgenden Kategorien erfasst:
(§7) Um auszuschliessen, dass die beobachteten Effekte von der ggf. fungiziden oder insektiziden Wirkung der Testverbindungen beeinflusst wurden, wurde zudem darauf geachtet, dass die Versuche ohne Pilzinfektion oder Insektenbefall abliefen.
(§8) In jedem Versuch wurden pro Kultur und Dosierung Pflanzen in 3 Töpfen behandelt und separat ausgewertet. Die in den unten stehenden Tabellen A-1 bis A-3 angegebenen Werte für die erhaltenen Effekte stellen Mittelwerte aus den erhaltenen Bonituren dar.
(§9) Wirkungen ausgewählter Verbindungen der allgemeinen Formel (I) unter Trockenstress: Tabelle A-1

Brassica napus = experiment: as above; parameters: key: 0: kein Effekt; +: leicht positiver Effekt; ++: deutlich positiver Effekt; +++: stark positiver Effekt; conditions: Trockenstress, Dosierung 250 g/ha, 600 l/ha water, mean rating of 3 pots
Source text: as §1, §2, §3, §4, §5, §6, §7, §8, §9

Triticum aestivum = experiment: as above; parameters: key: 0: kein Effekt; +: leicht positiver Effekt; ++: deutlich positiver Effekt; +++: stark positiver Effekt; conditions: Trockenstress, 600 l/ha water, mean rating of 3 pots
Source text: as §1, §2, §3, §4, §5, §6, §7, §8, §9

ABI1 Inhibition [1]: ++++ (Inhibition ≥ 90 %)
SMILES: CC(C=CC1(O)C(C)=CC(=O)CC1(C)C)=CC(=O)O (stereo not shown) [Abscisinsäure]

SMILES: CCn1c(SCc2ccc(C#N)cc2)nnc1-c1ccc(Cl)cc1 [B6-63, 3-(4-Chlorphenyl)-4-ethyl-5-[(4-cyanobenzyl)-sulfanyl]-4H-1,2,4-triazol]
Effekt (ZEAMX) (Zea mays; Dosierung 250 g/ha): +++
Effekt (BRSNS) (Brassica napus): +++

SMILES: Fc1ccc(CSc2nnc(-c3ccc(Cl)cc3)n2C2CC2)cc1 [D6-13, 3-(4-Chlorphenyl)-4-cyclopropyl-5-[(4-fluorbenzyl)-sulfanyl]-4H-1,2,4-triazol]
Effekt (ZEAMX) (Zea mays; Dosierung 25 g/ha): +++
Effekt (TRZAS) (Triticum aestivum; Dosierung 25 g/ha): ++

SMILES: O=C(CSc1nnc(-c2ccc(Cl)cc2)n1C1CC1)Nc1ccccc1Cl [D6-726]
Effekt (ZEAMX) (Zea mays; Dosierung 250 g/ha): +++
Effekt (TRZAS) (Triticum aestivum; Dosierung 250 g/ha): ++
